From patent US8022091B2, “Triazole derivative” (Taisho Pharmaceutical Co., Ltd., priority 2006, dated 2011) come the findings set out here.

The target in one series is T1, human Edg-1 (S1P1) (Homo sapiens, UniProt P21453).
T1 construct: expressed in transfected cells; host or cells: HEK-293
Kind of series: S1P1 binding assay: inhibition of [33P]-S1P binding to membrane fraction of HEK-293 cells transferred with the human Edg-1 (S1P1) gene. The note with it: for IC50: [33P]-S1P 0.1 nM, human Edg-1 (S1P1) HEK-293 membrane fraction, 1 h at 30° C., read-out: IC50 (concentration at which binding in the absence of the test compound was inhibited by 50%); for inhibition at 10 µM: test compound at 10 μM, inhibition of [33P]-S1P binding to the membrane fraction of HEK-293 cells expressing human Edg-1 (S1P1). Summed up: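 With 0.1 nM [33P]-S1P and compound (10^−5M single point, or a concentration range for IC50) in 0.1% DMSO, membrane fractions from human Edg-1-expressing HEK-293 cells were treated for one hour at 30° C in 20 mM Tris-HCl pH 7.4 with NaF, deoxypyridoxine and BSA. Bound label was measured after filtration, with untransfected-cell background subtracted.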

The term inhibition denotes the change of the read-out against control, counted positive when it falls. As usually defined, the melting point is the temperature of the solid-liquid transition.

The structures appear in SMILES notation. Several values for one entry are separate records, joined by “and”; a condition that tells them apart may be missing. Equal values may be shown once. Where only a bound is given, the exact number is not on record here.

T1 sequence (P21453 whole entry): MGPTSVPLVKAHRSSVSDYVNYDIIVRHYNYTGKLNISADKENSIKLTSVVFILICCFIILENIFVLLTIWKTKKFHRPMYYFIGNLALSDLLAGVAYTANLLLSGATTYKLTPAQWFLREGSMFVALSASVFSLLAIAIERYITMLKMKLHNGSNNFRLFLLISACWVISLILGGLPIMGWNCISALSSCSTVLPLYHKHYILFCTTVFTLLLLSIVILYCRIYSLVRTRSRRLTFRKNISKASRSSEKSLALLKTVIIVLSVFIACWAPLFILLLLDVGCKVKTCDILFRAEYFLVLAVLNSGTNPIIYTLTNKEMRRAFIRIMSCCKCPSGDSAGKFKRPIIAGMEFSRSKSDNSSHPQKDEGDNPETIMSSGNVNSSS

`CCn1c(Oc2cccc(N3CCOCC3)c2)nnc1[C@@H](C)NS(=O)(=O)c1ccc(Cl)c(Cl)c1` [Compound 34] registered a melting point of 192.5 to 195.5 °C. At human Edg-1 (S1P1), the IC50 worked out at 2 nM and the inhibition at 10 µM was determined as 106%.

With `CCn1c(Oc2ccc(OCCN(C)C)cc2)nnc1[C@@H](C)NS(=O)(=O)c1ccc(Cl)c(Cl)c1` [Compound 35], the melting point is 156 to 159 °C. Besides, at human Edg-1 (S1P1), the IC50 was no more than 35 nM and the inhibition at 10 µM came to 100%.

`CCn1c(Oc2ccc(OCCN3CCOCC3)cc2)nnc1[C@@H](C)NS(=O)(=O)c1ccc(Cl)c(Cl)c1` [Compound 36] had a melting point of 125 to 130 °C. Also, at human Edg-1 (S1P1), the IC50 was determined as 17.5 nM and the inhibition at 10 µM was 102%.

In the case of `CCn1c(Oc2ccc(F)c(C)c2)nnc1[C@@H](C)NS(=O)(=O)c1ccc(Cl)c(Cl)c1` [Compound 37], the melting point is 145 to 147 °C. Further, on human Edg-1 (S1P1), the IC50 was no more than 35 nM and the inhibition at 10 µM worked out at 100%.

For the molecule `COc1ccc(Oc2nnc([C@@H](C)NS(=O)(=O)c3ccc(Cl)c(Cl)c3)n2C2CC2)cc1` [Compound 38], the melting point was in the range of 148.5 to 150 °C. For the same molecule, on human Edg-1 (S1P1), the IC50 is 11.7 nM and the inhibition at 10 µM is 105%.

In turn, `CCn1c(Oc2ccc(C(C)C)cc2)nnc1[C@@H](C)NS(=O)(=O)c1ccc(Cl)c(Cl)c1` [Compound 39] yielded a melting point of 176 to 178 °C. Further, on human Edg-1 (S1P1), the IC50 is no more than 10 nM and the inhibition at 10 µM is 98.5%.

On to `CCn1c(Oc2cccc(C(C)C)c2)nnc1[C@@H](C)NS(=O)(=O)c1ccc(Cl)c(Cl)c1` [Compound 40], for which the melting point lay within 155.5 to 156.5 °C. Moreover, at human Edg-1 (S1P1), the IC50 is no more than 10 nM and the inhibition at 10 µM was 106%.

On to `CCn1c(Oc2cccc3ccccc23)nnc1[C@@H](C)NS(=O)(=O)c1ccc(Cl)c(Cl)c1` [Compound 41], for which the melting point was 166 to 170 °C. Besides, on human Edg-1 (S1P1), the inhibition at 10 µM is 92%.

`CCn1c(Oc2ccc3ccccc3c2)nnc1[C@@H](C)NS(=O)(=O)c1ccc(Cl)c(Cl)c1` [Compound 42] had a melting point of 176.5 to 179.5 °C. Also, at human Edg-1 (S1P1), the IC50 stood at 22 nM and the inhibition at 10 µM was 102%.

For the molecule `CCn1c(Oc2ccc(N(C)C)cc2)nnc1[C@@H](C)NS(=O)(=O)c1ccc(Cl)c(Cl)c1` [Compound 43], the melting point is 182.5 to 185 °C. At human Edg-1 (S1P1), the IC50 is no more than 35 nM and the inhibition at 10 µM was 99.8%.

On to `CCn1c(Oc2ccc(F)c(F)c2)nnc1[C@@H](C)NS(=O)(=O)c1ccc(Cl)c(Cl)c1` [Compound 44], for which the melting point lay in the range of 140 to 145.5 °C. Besides, the inhibition at 10 µM at human Edg-1 (S1P1) is 100%.

Molecule `CCn1c(Oc2ccc3sc(C)nc3c2)nnc1[C@@H](C)NS(=O)(=O)c1ccc(Cl)c(Cl)c1` [Compound 46] showed a melting point of 247 to 250 °C. For the same molecule, on human Edg-1 (S1P1), the IC50 is ≤ 35 nM and 28.5 nM; the inhibition at 10 µM came to 94.6%.

The molecule `CCn1c(Oc2ccc(N3CCOCC3)cc2)nnc1[C@@H](C)NS(=O)(=O)c1ccc(Cl)c(Cl)c1` [Compound 47] returned a melting point of 191 to 192 °C. For the same molecule, the inhibition at 10 µM at human Edg-1 (S1P1) was determined as 102%.

In turn, `CCn1c(Oc2ccc(N3CCCCC3)cc2)nnc1[C@@H](C)NS(=O)(=O)c1ccc(Cl)c(Cl)c1` [Compound 48] registered a melting point of 195.5 to 196.5 °C. Moreover, the inhibition at 10 µM on human Edg-1 (S1P1) came out at 96.7%.

For `CCn1c(Oc2ccc(N3CCCC3)cc2)nnc1[C@@H](C)NS(=O)(=O)c1ccc(Cl)c(Cl)c1` [Compound 49], the melting point is 198 to 199 °C. At human Edg-1 (S1P1), the IC50 stood at 6 nM and the inhibition at 10 µM turned out to be 102%.

With `CCn1c(Oc2cccnc2)nnc1[C@@H](C)NS(=O)(=O)c1ccc(Cl)c(Cl)c1` [Compound 50], the melting point was 129 to 130 °C. The inhibition at 10 µM at human Edg-1 (S1P1) was 92.9%.

Molecule `CCn1c(Oc2ccc(C)nc2)nnc1[C@@H](C)NS(=O)(=O)c1ccc(Cl)c(Cl)c1` [Compound 51] returned a melting point of 148.5 to 150.5 °C. The inhibition at 10 µM on human Edg-1 (S1P1) was determined as 99.9%.

For the molecule `CCn1c(Oc2ccc(N3CCN(C)CC3)cc2)nnc1[C@@H](C)NS(=O)(=O)c1ccc(Cl)c(Cl)c1` [Compound 52], the melting point fell in the range of 203 to 205 °C. Moreover, at human Edg-1 (S1P1), the inhibition at 10 µM was found to be 100%.

As for `CCn1c(Oc2ccccn2)nnc1[C@@H](C)NS(=O)(=O)c1ccc(Cl)c(Cl)c1` [Compound 53], the melting point was 172 to 173 °C. Moreover, the inhibition at 10 µM on human Edg-1 (S1P1) was determined as 86.8%.

For `CCn1c(Oc2ccc3ccncc3c2)nnc1[C@@H](C)NS(=O)(=O)c1ccc(Cl)c(Cl)c1` [Compound 54], the melting point lay within 192 to 193 °C. In addition, the inhibition at 10 µM at human Edg-1 (S1P1) is 104%.

Regarding `Cc1ccc(Oc2nnc([C@@H](C)NS(=O)(=O)c3ccc(Cl)c(Cl)c3)n2C)cc1` [Compound 58], the melting point is 181 to 183 °C. Besides, on human Edg-1 (S1P1), the inhibition at 10 µM stood at 99.7%.

`CCCn1c(Oc2ccc(C)cc2)nnc1[C@@H](C)NS(=O)(=O)c1ccc(Cl)c(Cl)c1` [Compound 59] yielded a melting point of 169.5 to 170.5 °C. Also, the inhibition at 10 µM on human Edg-1 (S1P1) was 94.3%.

As to `Cc1ccc(Oc2nnc([C@@H](C)NS(=O)(=O)c3ccc(Cl)c(Cl)c3)n2C(C)C)cc1` [Compound 60], the melting point lay in the range of 192.5 to 195 °C. Further, the inhibition at 10 µM on human Edg-1 (S1P1) came out at 98.9%.

Consider `CCn1c(Oc2ccc(C)cc2)nnc1[C@H](C)NS(=O)(=O)c1ccc(Cl)c(Cl)c1` [Compound 62], for which the melting point is 186 to 188.5 °C. The inhibition at 10 µM on human Edg-1 (S1P1) worked out at 83.5%.

For `CCn1c(Oc2ccc3[nH]ccc3c2)nnc1[C@@H](C)NS(=O)(=O)c1ccc(Cl)c(Cl)c1` [Compound 63], the melting point was in the range of 216.5 to 217.5 °C. For the same molecule, the inhibition at 10 µM on human Edg-1 (S1P1) amounted to 105%.

As to `CCn1c(Oc2ccc3cc[nH]c3c2)nnc1[C@@H](C)NS(=O)(=O)c1ccc(Cl)c(Cl)c1` [Compound 64], the melting point was 223 to 224 °C. Also, at human Edg-1 (S1P1), the IC50 is no more than 35 nM and the inhibition at 10 µM was 101%.

Regarding `CCn1c(Oc2ccc3[nH]c(C)cc3c2)nnc1[C@@H](C)NS(=O)(=O)c1ccc(Cl)c(Cl)c1` [Compound 65], the melting point is 201 to 202 °C. In addition, the inhibition at 10 µM at human Edg-1 (S1P1) came out at 105%.

Regarding `CCn1c(Oc2cc(C)ccn2)nnc1[C@@H](C)NS(=O)(=O)c1ccc(Cl)c(Cl)c1` [Compound 66], the melting point was in the range of 183 to 190 °C. The inhibition at 10 µM at human Edg-1 (S1P1) was 93.4%.

For `CCn1c(Oc2ccc(C)cn2)nnc1[C@@H](C)NS(=O)(=O)c1ccc(Cl)c(Cl)c1` [Compound 67], the melting point is 182 to 188 °C. For the same molecule, the inhibition at 10 µM on human Edg-1 (S1P1) worked out at 95.5%.

With `CCn1c(Oc2ccc3c(c2)CCC(=O)N3)nnc1[C@@H](C)NS(=O)(=O)c1ccc(Cl)c(Cl)c1` [Compound 68], the melting point fell in the range of 212 to 223 °C. The inhibition at 10 µM at human Edg-1 (S1P1) stood at 101%.

In the case of `CCn1c(Oc2cccc(OC)c2)nnc1[C@@H](C)NS(=O)(=O)c1ccc(Cl)c(Cl)c1` [Compound 69], the melting point lay in the range of 119 to 120.5 °C. Besides, at human Edg-1 (S1P1), the IC50 was no more than 35 nM and the inhibition at 10 µM is 103%.

In the case of `CCN(CC)c1cccc(Oc2nnc([C@@H](C)NS(=O)(=O)c3ccc(Cl)c(Cl)c3)n2CC)c1` [Compound 70], the melting point is 144 to 146 °C. On human Edg-1 (S1P1), the IC50 is no more than 10 nM and the inhibition at 10 µM was determined as 96.5%.
